Series [1] is described as follows: Sulfonation of 1′-hydroxymyristicin, male rat liver S9. The format is in vitro ADME. As for the experimental part: (§1) The formation of 1′-sulfoxymyristicin was determined using incubations containing male rat liver Sprague–Dawley or pooled gender human liver S9 proteins, PAPS as a cofactor, and GSH, which acts as a scavenger of the reactive carbocation formed due to the unstable nature of the 1′-sulfoxy metabolite in an aqueous environment (van den Berg et al. [2012]; Martati et al. [2011]; Al-Subeihi et al. [2011]). Incubation mixtures containing (final concentrations) 10 mM of GSH, 0.2 mM of PAPS, and 3 mg/ml of S9 proteins in 0.1 M potassium phosphate (pH 8.2) were pre-incubated for 1 min at 37 °C. After the pre-incubation, 1′-hydroxymyristicin dissolved in DMSO was added in final concentrations ranging between 10 and 6000 μM while keeping the final content of DMSO at 1 % (v/v). The reaction was terminated after 360 min of incubation by adding 25 μl (0.25 times the incubation volume) of ice-cold ACN. The formation of the GSH conjugate of 1′-sulfoxymyristicin was linear with time and S9 protein concentrations under the experimental conditions used. Blank incubations were performed in the absence of PAPS. Incubations were performed in triplicate. All samples were centrifuged for 5 min at 16,000×g, and the supernatant was stored at −20 °C until ultra-performance liquid chromatography (UPLC) analysis.
(§2) Quantification of 1′-sulfoxymyristicin was done using UPLC analysis as described for the estimation of 1′-sulfoxysafrole (Martati et al. [2011]). […] The gradient for analysis of the metabolite consisted of a mixture of ACN and ultrapure water containing 0.1 % (v/v) TFA. The flow rate was 0.6 ml/min, starting at 0 % ACN and increasing the percentage of ACN to 20 % over 0.2 min, followed by an increase to 30 % ACN over 4.3 min, then increasing to 100 % over 0.3 min, and keeping it at 100 % for 0.2 min, and finally decreasing to 0 % over 0.2 min and keeping it at 0 % for 0.8 min. Separation and purification of the GSH adduct of 1′-sulfoxymyristicin was performed by collecting the peak of the metabolite from the UPLC column. […]

The nature of series [2]: Sulfonation of 1′-hydroxymyristicin, human liver S9. The format is in vitro ADME. As for the experimental part: as §1, §2
Series [3] can be described thus: Microsomal conversion of myristicin, male rat liver microsomes. Type of series: in vitro ADME. As for the experimental part: (§3) First, it was determined which organs are involved in the biotransformation of myristicin in rat and human. For this purpose, liver, kidney, lung, and small intestine microsomes from male Sprague–Dawley rat and pooled gender human were used. Incubations were performed by adding myristicin to incubation mixtures containing 1 mg/mL of the microsomal protein preparations and 3 mM NADPH in 0.2 M Tris–HCl (pH 7.4). After 1 min of pre-incubation at 37 °C, myristicin (final concentration, 1000 μM) was added from a 100 times concentrated stock solution in DMSO so that the final DMSO content was 1 % (v/v). Incubations were carried out for 30 min after which the reactions were terminated by adding 25 µl (0.25 times the incubation volume) of ice-cold ACN. Samples were centrifuged for 5 min at 13,000×g, and the supernatant was stored at −20 °C until UPLC analysis. As metabolism of myristicin was observed only in incubations with liver microsomes for male rats and pooled gender human, the determination of kinetic constants for the formation of microsomal metabolites was performed only for the liver fractions. Incubations to determine kinetic constants were performed following the conditions described above using final concentrations of myristicin from 25 to 1000 μM for rat and human liver. In all incubations, the final concentration of DMSO, in which myristicin was dissolved, was kept at 1 % (v/v). The formation of different microsomal metabolites was linear with time and microsomal protein concentration under the conditions described. Blank incubations were performed in the absence of the cofactor NADPH. All incubations were performed in triplicate.
(§4) Secondary metabolism of the relevant 1′-hydroxy metabolite of myristicin was taken into account by determining the kinetic constants for its conversion in (a) glucuronidation, (b) sulfation, and (c) oxidation, again under conditions that allowed adequate definition of kinetic constants and with <10 % substrate conversion. Incubation samples were subjected to UPLC analysis that was performed as described previously (Punt et al. [2008]). Identification was achieved by comparing the UV spectra of the formed metabolites to the spectra of the synthesized 1′-hydroxymyristicin and 1′-oxomyristicin reference standards. Quantification of all formed metabolites was done by comparing the peak areas to those of calibration curves of the corresponding reference compounds, determined using UPLC with photodiode array detection (UPLC-PDA). The UPLC system was composed of a Waters (Waters, Milford, MA) Acquity solvent manager, sample manager, and photodiode array detector, equipped with Water Acquity UPLC BEH C18 column.
(§5) The gradient for analysis of microsomal metabolites was performed with 100 % ACN and ultrapure water containing 0.1 % (v/v) TFA. The flow rate was 0.6 ml/min. The gradient started at 10 % ACN, increased to 50 % ACN over 4 min, increased to 80 % over 0.5 min, followed by decrease to 10 % ACN over 0.5 min, and finally kept at 10 % for 1 min.

Series [4] in a line: Microsomal conversion of myristicin, human liver microsomes. Type of series: in vitro ADME. As for the experimental part: as §3, §4, §5
For orientation: Liver microsomes are a subcellular fraction often used to study metabolism.

Another series has as its system rat urine. More on the design: method as in Beyer et al. [2006]. The note with it: single oral dose 100 mg/kg bw myristicin, urine over 24 h; ref Beyer et al. [2006]; cited from earlier work.
Series [5] is described as follows: Metabolism of myristicin by rat small intestine, lung, kidney microsomes. The format is in vitro ADME. The note with it: 1000 μM myristicin, 1 mg/mL microsomal protein, NADPH, 30 min. As for the experimental part:
as §3, with “The formation of different microsomal metabolites was linear with time and microsomal protein concentration under the conditions described. Blank incubations were performed in the absence of the cofactor NADPH. All incubations were performed in triplicate.” left out

Series [6] can be described thus: Metabolism of myristicin by human small intestine, lung, kidney microsomes. The format is in vitro ADME. The note with it: 1000 μM myristicin, 1 mg/mL microsomal protein, NADPH, 30 min. As for the experimental part:
as §3, with “The formation of different microsomal metabolites was linear with time and microsomal protein concentration under the conditions described. Blank incubations were performed in the absence of the cofactor NADPH. All incubations were performed in triplicate.” left out

The conditions of series [7]: uptake from GI tract, assumed from fast and complete absorption of safrole; ref Punt et al. [2008]; cited from earlier work.
The subject of series [8] is Cultured human HepG2 cells. The note with it: harvested after 24 h, ref Zhou et al. (2007a), cited from earlier work.
The subject of another series is Mouse liver CD-1. The note with it: cited from earlier work; for pmol Adduct/mg DNA: female, livers 24 h after treatment.
A further series relates to New born mice B6C3F1. The note with it: male, injections on days 1, 8, 15, 22 after birth, ref Phillips et al. (1984), cited from earlier work.
The next series concerns male B6C3F1 mice. The note with it: total dose 3.75 or 4.75 µmol injected over 22 days, 12 or 18 months; ref Miller et al. [1983]; cited from earlier work.
The test system of the next series is pregnant ICR mice. The note with it: single dose of 6 mg myristicin by gastric intubation; ref Randerath et al. [1993]; cited from earlier work.
The subject of series [9] is freshly isolated rat hepatocytes in primary culture. The note with it: 10^−6 to 10^−3 M; ref Howes et al. [1990]; cited from earlier work.
The conditions of series [10]: ref EFSA [2012]; Zhou et al. [2007b]; cited from earlier work.
In a further series the test system is DNA. The note with it: ref Zhou et al. [2007a]; Kobets et al. [2016]; Phillips et al. [1984]; Randerath et al. [1984]; cited from earlier work.
Series [11] is described as follows: Margin of exposure (MOE) risk assessment. The note with it: BMDL10 of safrole.
Description: The margin-of-exposure (MOE) concept was applied to assess the possible risks for human health resulting from the daily exposure to myristicin (JECFA [2005]; EFSA [2005]; Barlow et al. [2006]; O’Brien et al. [2006]). The MOE is a dimensionless ratio based on a reference point representing a dose causing a low but measurable cancer incidence in experimental animals (e.g., a BMDL10), which is divided by the estimated daily intake in humans (EFSA [2005]). […] The estimated daily intake of safrole from spice and spice oil in the USA amounts to 0.001 mg/kg bw per day (WHO [2009]).
In a further series the test system is experimental animals. The note with it: tumor formation; ref van den Berg et al. [2011]; cited from earlier work.
Another series has as its system rats or mice. The note with it: chronic oral exposure to high doses, or male CD-1 mice preweaning; ref Borchert et al. [1973]; Drinkwater et al. [1976]; National Toxicology [2000]; cited from earlier work.
The mark [12] stands for this setting: S9 protein yield 143 mg/g liver.
Setting [13] is: formation of the metabolite from myristicin, NADPH, mean of three ± SD.
The mark [14] stands for this setting: formation of the metabolite from myristicin, Vmax/Km × 1000.
[15] abbreviates: from myristicin, scaled Vmax/Km.
[16] abbreviates: 80 mg/kg bw i.p., ref Randerath et al. (1984).
The mark [17] stands for this setting: 400 mg/kg bw i.p., ref Randerath et al. (1984).

Structures are written as SMILES. Like-named read-outs stand apart in the source and are kept apart here.

For the compound `C=CC(OS(=O)(=O)O)c1cc(OC)c2c(c1)OCO2` (stereo not shown) [1′-Sulfoxymyristicin, 1′-sulfoxymyristicin], the “k, first-order rate constant for product formation” value in series [1] (S9, PAPS, GSH trapping) is 17.6 × 10^−6 ml/min/mg protein; in [2] (S9, PAPS, GSH trapping), 16.3 × 10^−6 ml/min/mg protein. For the same compound, the entries for the “k Scaled” value in series [1] (setting [12]) and in series [2] (setting [12]) were 0.15 ml/hr/g tissue and 0.14 ml/hr/g tissue, respectively.
With `C=CCc1cc(O)c(O)c(OC)c1` [5-Allyl-2,3-dihydroxyanisole, 5-allyl-2,3-dihydroxyanisole], the values for the Vmax in series [3] (setting [13]) and in [4] (setting [13]) were 1.3 ± 0.23 nmol min^−1 (mg microsomal or S9 protein)^−1 and 0.93 ± 0.13 nmol min^−1 (mg microsomal or S9 protein)^−1, respectively. Moreover, the “In vitro catalytic efficiency” value was 39.394 μl min^−1 (mg microsomal or S9 protein)^−1 in [3] (setting [14]) and 7.881 μl min^−1 (mg microsomal or S9 protein)^−1 in series [4] (setting [14]). For the same compound, the “Scaled Vmax, in vivo” value in series [3] (from myristicin, microsomal protein yield 35 mg/g liver) was determined as 2.73 μmol/h/g tissue; in series [4] (from myristicin, microsomal protein yield 32 mg/g liver), 1.786 μmol/h/g tissue. The “In vivo catalytic efficiency” value amounted to 0.0827 ml/h/g tissue in series [3] (setting [15]) and 0.0151 ml/h/g tissue in [4] (setting [15]). For the same compound, the “catalytic efficiency, fold higher than for formation of 3′-hydroxymyristicin” value in series [3] (male rat liver microsomes) is reported as “approximately sevenfold”. Further, the “metabolite in rat urine, percentage of the total dose” value with rat urine is on record as 67 % of the total dose.
As for `C=CCc1cc(OC)c2c(c1)OCO2` [Myristicin, 1-allyl-5-methoxy-3,4 methylene-dioxybenzene], the “metabolism of myristicin in small intestine, lung, or kidney microsomes” value in [5] and in series [6] was “no detectable metabolism” in each case. For the same compound, the “absorption rate constant (ka)” value in series [7] was 1.0 h⁻¹. Moreover, the “pmol Adduct/mg DNA” value in series [8] (50 uM) is given as 0.017 pmol Adduct/mg DNA; in [8] (150 uM) it was 0.049 pmol Adduct/mg DNA; in series [8] (450 uM), 0.165 pmol Adduct/mg DNA; in the series on Mouse liver CD-1 (setting [16]), 16.8 pmol Adduct/mg DNA; in the series on Mouse liver CD-1 (setting [17]), 49.5 pmol Adduct/mg DNA; in the series with New born mice B6C3F1 (36.5 mg/kg bw i.p.), 7.8 pmol Adduct/mg DNA. Also, the “activity for the initiation of hepatic tumors” value with male B6C3F1 mice is listed as “no detectable activity”. Besides, the “level of myristicin adducts in fetal liver” value with pregnant ICR mice is on record as 63 % of the total adducts. In the series on pregnant ICR mice, the “level of myristicin adducts in maternal liver” value was 68 % of the total adducts. Further, the cytotoxicity result in [9] is recorded as “showed cytotoxicity”. The in vitro genotoxicity entry in series [10] is “mutagenic”. Also, in the series on DNA, the “DNA adduct formation, result” value is “positive results”. In [11] (estimated daily intake of myristicin 0.0019 mg/kg bw per day from herbs and spices), the MOE is 1000–2684.
Consider `C=CCc1ccc2c(c1)OCO2` [Safrole, safrole], for which the “pmol Adduct/mg DNA” value was 0.083 pmol Adduct/mg DNA in series [8] (150 uM); 0.102 pmol Adduct/mg DNA in series [8] (450 uM); 45.9 pmol Adduct/mg DNA with Mouse liver CD-1 (setting [16]); 203.4 pmol Adduct/mg DNA in the series with Mouse liver CD-1 (setting [17]); 17.5 pmol Adduct/mg DNA in the series with New born mice B6C3F1 (30.8 mg/kg bw i.p.). Further, the “DNA adduct after 140 days (persistence)” value in the series on Mouse liver CD-1 (400 mg/kg bw safrole, liver 140 days after treatment, ref Randerath et al. (1984)) is “After admin. of dose 400 mg/kg bw safrole, livers were taken after 24 h, 28, 58, 98, and 140 days after each treatment, after 140 days adduct was 21 pmol/mg DNA”. The “DNA adduct formation in the liver, times higher for safrole than myristicin” value in the series with Mouse liver CD-1 (mice, i.p. injection, ref Randerath et al. [1984]) was 2.7 times. For the same compound, in [9], the cytotoxicity entry is “cytotoxicity”. In addition, the “unscheduled DNA synthesis (UDS)” value in series [9] is “induced unscheduled DNA synthesis (UDS)”. For the same compound, the BMDL10 in the series with experimental animals is on record as 1.9–5.1 mg/kg bw per day. For the same compound, in the series on rats or mice, the “induction of hepatic tumors” value was “induce hepatic tumors”. Moreover, in the series on DNA, the “DNA adduct formation, result” value is given as “positive results”. For the same compound, the MOE in series [11] (estimated daily intake of safrole 0.001 mg/kg bw per day from spice and spice oil in the USA) is given as 1900–5100.

These data come from article PMC5306082, “Physiologically based kinetic modeling of the bioactivation of myristicin” (Archives of Toxicology, 2016).
